Results reported in patent US20230190695A1, “TRIBUTYRIN SUPPLEMENTATION PROVIDES BENEFITS FOR MENTAL WELLNESS, IMMUNE HEALTH AND FAT METABOLISM” (PHARMAVITE LLC, priority 2021, published 2023).

Tests used:
[1] = test system: combined microbiota of 10 healthy adult human donors; assay: Colonic simulation, in vitro gut simulation model: microbial composition
Method: The impact of two doses of tributyrin on gut microbiota composition and microbial metabolites was studied in an in vitro gut simulation model using combined microbiota of 10 healthy adult human donors (5 males, 5 females, 30-60 years old, BMI<30). The retention times and pH ranges were optimized in order to obtain results that are representative for a full GIT simulation. A stabilization period was followed by a two-week control period and three weeks of treatment, where 59% of 300 mg/day or 59% of 1000 mg/day was administered daily (based on release profile described above). Samples were collected at the end of control period and treatment period. Both doses were performed in biological triplicate to account for biological variability. […] Higher ratio of Bacteroidetes:Firmicutes is associated with lean phenotype. Tributyrin treatment increases this ratio as illustrated in FIG. 4 and therefore may provide metabolic health benefit. • At species level, importantly, Akkermansia muciniphila and Faecalibacterium prausnitzii were enriched in tributyrin-treated compartments. • Akkermansia muciniphila is an acetate and propionate-producing, mucin-degrading bacteria. Its presence in the gut is associated with health benefits. An inverse relationship- between colonization of Akkermansia muciniphila and inflammatory conditions or obesity have been shown. […] Both Parabacteroides distasonis and Parabacteroides goldsteinii were stimulated in the proximal colon and distal colon for both low and high doses of tributyrin.

C57BL/6J mice [2] = assay: Forced swim test (FST) after acute restraint stress; assay type: in vivo; settings: for time immobile in the FST: combined female + male, study day 52; for immobility in the FST: vs sex-matched untreated stressed control
Method: (§1) A study was conducted to evaluate tributyrin on stress and mood-related behaviors in female and male C57BL/6J mice. The animals were given immediate ad libitum access to water and standard rodent chow and were acclimated to the facility for 7 days. On study day -3, fat and muscle content was measured using nuclear magnetic resonance spectroscopy (NMR: MiniSpec NMR, Bruker LF50 Body Composition Analyzer). On study day 0, the animals were weighed, blood and fecal samples (1-2 pellets/animal) were collected, and the animals were randomized into their specific treatment group. Daily oral gavage of 4 distinct groups commenced as follows: • Treatment 1: daily PBS vehicle + no acute stress before behavioral measures • Treatment 2: daily PBS vehicle + acute stress before behavioral measures • Treatment 3: daily low-dose tributyrin (60 mg/kg/d) + acute stress before behavioral measures • Treatment 4: daily high-dose tributyrin (200 mg/kg/d) + acute stress before behavioral measures
(§2) After 7 weeks of intervention, blood and fecal samples were collected on study day 49, and fecal collection was repeated on study days 50 and 52. On study day 52, animals assigned to the acute stress groups were acutely restrained for two hours while unstressed animals were housed singly for 140 minutes in fresh cages. […] All animals were then tested in the forced swim test (FST). A retro-orbital blood sample was collected within 15 to 30 minutes after the FST, and fecal pellets were collected (for corticosterone measurements). On study day 53, the animals were weighed, and body composition by NMR was performed a second time. The study was terminated on study day 56, blood was collected and necropsies were performed. Serum cytokine levels were evaluated in terminal serum.
Forced Swim Test (FST) is a test centered on a rodent’s response to unescapable stress. Results of this test have been interpreted as a measure of susceptibility to negative mood. It is commonly used to measure the effectiveness of antidepressants. Forced swim tests were performed on study day 52 for each cohort of mice.

C57BL/6J mice [3] = assay: Fecal corticosterone after forced swim test; assay type: in vivo; settings: male mice; 200 mg/kg/d; vs stressed vehicle control
Method: as §1
After 7 weeks of intervention, blood and fecal samples were collected on study day 49, and fecal collection was repeated on study days 50 and 52. On study day 52, animals assigned to the acute stress groups were acutely restrained for two hours while unstressed animals were housed singly for 140 minutes in fresh cages. […] Serum cytokine levels were evaluated in terminal serum. […]

C57BL/6J mice [4] = assay: Cytokine concentrations in terminal serum; assay type: in vivo; settings: male mice
Method: as §1, §2

[5] = test system: Caco-2/THP1 (colonic cells/macrophages) co-culture; assay: Caco-2/THP1 co-culture immunomodulation model; assay type: cell-based
Description: An in vitro Caco-2/THP1 (colonic cells/macrophages) co-culture model was used to assess the effect of microbial metabolites on proinflammatory or ant-inflammatory cytokines and chemokines which serve as markers for immunomodulation.

C57BL/6J mice [6] = assay: Fecal metabolite analysis (GC, UHPLC-HRMS); assay type: in vivo
Method: as §1, §2
Gut microbiota metabolizes ingested food and supplements in the colon thereby producing various metabolites, which have an impact on several host biological processes. These metabolites generated in the colon can be measured in the feces. A panel of metabolites were measured in feces collected from experimental mice 8 weeks post-treatment. Fecal SCFA were measured by Gas Chromatography (GC) and tryptophan metabolites were measured using Ultra High Performance Liquid Chromatography High Resolution Mass Spectrometry (UHPLC-HRMS). Comparisons were made between stressed untreated mice and tributyrin treated stressed mice.

[7] = test system: combined microbiota of 10 healthy adult human donors; assay: Colonic simulation, in vitro gut simulation model: butyrate and microbial metabolites; parameters: Indole-3-acetic acid / Indole-3-aldehyde / Indole-3-ethanol / Tryptophan / 5-Hydroxyindoleacetic acid / Tryptamine: unit not given here; settings: for 1-Acetyl-3-indolecarboxyaldehyde / 5-Hydroxyindoleacetic acid / Indole / Indole-3-acetic acid / Indole-3-acrylic acid / Melatonin / Serotonin / Skatole / Tryptamine / Tryptophan / Indole-3-ethanol / Indole-3-aldehyde / Indole-3-propionic acid: Treatment; for average increase of butyrate as compared to the control period / average increase of butyrate: highest dose (59% of 1000 mg/day); for average increase of butyrate: vs control period
Method: The impact of two doses of tributyrin on gut microbiota composition and microbial metabolites was studied in an in vitro gut simulation model using combined microbiota of 10 healthy adult human donors (5 males, 5 females, 30-60 years old, BMI<30). The retention times and pH ranges were optimized in order to obtain results that are representative for a full GIT simulation. A stabilization period was followed by a two-week control period and three weeks of treatment, where 59% of 300 mg/day or 59% of 1000 mg/day was administered daily (based on release profile described above). Samples were collected at the end of control period and treatment period. Both doses were performed in biological triplicate to account for biological variability.

C57BL/6J mice [8] = assay: Body weight and body composition by NMR; assay type: in vivo; settings: for final fat as a percentage of baseline: all mice, vs combined unstressed untreated control
Method: as §1, §2

[9] = proximal colon and distal colon, both low and high doses
[10] = 60 mg/kg/d, vs stressed vehicle control
[11] = DC-Low (distal colon, low dose)
[12] = PC-High (proximal colon, high dose)
[13] = PC-Low (proximal colon, low dose)
[14] = low dose (60 mg/kg/d), 8 weeks post-treatment
[15] = Distal Colon, High Dose (59% of 1000 mg/day)
[16] = Distal Colon, Low Dose (59% of 300 mg/day)
[17] = Proximal Colon, High Dose (59% of 1000 mg/day)
[18] = Proximal Colon, Low Dose (59% of 300 mg/day)

For CCCC(=O)OCC(COC(=O)CCC)OC(=O)CCC [tributyrin], the Faecalibacterium prausnitzii abundance ([1]; PC and DC, low and high dose) was “enriched”, the Akkermansia muciniphila abundance ([1]; PC and DC, low- and high-dose) was “enriched” and the “gut microbial diversity (Simpson Diversity Index)” value ([1]; both low and high dose) was “increase”. The “ratio of Bacteroidetes:Firmicutes” value ([1]; distal colon, low and high dose vs control (FIG. 4)) was “increases”, the “Parabacteroides merdae ATCC 43184 abundance” value ([1]; proximal colon) was “specific stimulation” and the Tannerellaceae levels ([1]; proximal colon) was “increased”. For the same compound, the Parabacteroides distasonis abundance [1, 9] was “stimulated”, the Parabacteroides goldsteinii abundance [1, 9] was “stimulated” and the “time immobile in the FST” value (C57BL/6J mice [2]; 60 mg/kg/d oral gavage, vs stressed untreated control) was “reductions in time immobile in the FST were statistically significant”. For the same compound, the “immobility in the FST” value (C57BL/6J mice [2]; 60 mg/kg, females) was “reduced immobility”, the “time immobile in the FST” value (C57BL/6J mice [2]; 200 mg/kg/d oral gavage, vs stressed untreated control and vs unstressed control) was “reductions in time immobile in the FST were statistically significant” and the “immobility in the FST” value (C57BL/6J mice [2]; 200 mg/kg, males) was “reduced immobility”. For the same compound, the “fecal corticosterone levels after FST” value (C57BL/6J mice [3]) was “statistical reduction”, the “IL-2 in terminal serum” value (C57BL/6J mice [4]; 60 mg/kg/d, vs stressed mice) was “reduced significantly” and the “IL-4 in terminal serum” value (C57BL/6J mice [4]; 60 mg/kg/d, vs stressed mice) was “reduced significantly”. For the same compound, the “IFNγ in terminal serum” value (C57BL/6J mice [4]; [10]) was “significantly reduced”, the “MIP-1a in terminal serum” value (C57BL/6J mice [4]; [10]) was “significantly reduced” and the “IL-4 in terminal serum” value (C57BL/6J mice [4]; 200 mg/kg/d, vs stressed mice) was “reduced significantly”. For the same compound, the “MIP-1a in terminal serum” value (C57BL/6J mice [4]; 200 mg/kg/d, vs stressed vehicle control) was “significantly reduced”, the “IL6, treatment suspensions normalized to blank control suspensions” value (shortened to “IL6, treatment suspensions normalized”) [5, 11] was 1.13 and the “IL10, treatment suspensions normalized to blank control suspensions” value [5, 11] was 1.03. The “IL-1B, treatment suspensions normalized to blank control suspensions” value (“IL-1B, treatment suspensions normalized” for short) [5, 11] was 1.07, the “MCP1, treatment suspensions normalized to blank control suspensions” value [5, 11] was 1.05 and the “IL6, treatment suspensions normalized” value [5, 12] was 1.31. The “IL8, treatment suspensions normalized to blank control suspensions” value [5, 12] was 1.03, the “IL-1B, treatment suspensions normalized” value [5, 12] was 1.08 and the “MCP1, treatment suspensions normalized to blank control suspensions” value [5, 12] was 0.97. For the same compound, the “IL6, treatment suspensions normalized” value [5, 13] was 1.01, the “IL8, treatment suspensions normalized to blank control suspensions” value [5, 13] was 1.3 and the “IL10, treatment suspensions normalized to blank control suspensions” value [5, 13] was 1.06. For the same compound, the “IL-1B, treatment suspensions normalized” value [5, 13] was 1.08, the “TNFa, treatment suspensions normalized to blank control suspensions” value [5, 13] was 1.06 and the tryptophan in feces (C57BL/6J mice [6]; high dose (200 mg/kg/d), 8 weeks post-treatment) was 142.8 ± 53.4 ng/mg. The “Indole-3-acetic acid in feces” value (C57BL/6J mice [6]; [14]) was 1.56 ± 1.17 ng/mg, the tryptophan in feces (C57BL/6J mice [6]; [14]) was 154.9 ± 98.7 ng/mg and the “fecal SCFA levels” value (C57BL/6J mice [6]; treated mice vs untreated stressed controls) was “No differences”. For the same compound, the 1-Acetyl-3-indolecarboxyaldehyde [7, 15] was “< LOD”, the 5-Hydroxyindoleacetic acid [7, 15] was 0.001 and the Indole [7, 15] was “< LOD”. For the same compound, the Indole-3-acetic acid [7, 15] was 0.644, the Indole-3-acrylic acid [7, 15] was “< LOD” and the Melatonin [7, 15] was “< LOD”. The Serotonin [7, 15] was “< LOD”, the Skatole [7, 15] was “< LOD” and the Tryptamine [7, 15] was 0.175. For the same compound, the Tryptophan [7, 15] was 0.095, the 1-Acetyl-3-indolecarboxyaldehyde [7, 16] was “< LOD” and the 5-Hydroxyindoleacetic acid [7, 16] was 0.001. For the same compound, the Indole [7, 16] was “< LOD”, the Indole-3-acrylic acid [7, 16] was “< LOD” and the Indole-3-ethanol [7, 16] was 0.284. For the same compound, the Melatonin [7, 16] was “< LOD”, the Serotonin [7, 16] was “< LOD” and the Skatole [7, 16] was “< LOD”. The Tryptamine [7, 16] was 0.205, the Tryptophan [7, 16] was 0.116 and the 1-Acetyl-3-indolecarboxyaldehyde [7, 17] was “< LOD”. For the same compound, the 5-Hydroxyindoleacetic acid [7, 17] was 0.008, the Indole [7, 17] was “< LOD” and the Indole-3-acetic acid [7, 17] was 0.916. The Indole-3-acrylic acid [7, 17] was “< LOD”, the Indole-3-aldehyde [7, 17] was 0.058 and the Indole-3-propionic acid [7, 17] was 0.01. For the same compound, the Melatonin [7, 17] was “< LOD”, the Serotonin [7, 17] was “< LOD” and the Skatole [7, 17] was “< LOD”. For the same compound, the Tryptamine [7, 17] was 0.105, the 1-Acetyl-3-indolecarboxyaldehyde [7, 18] was “< LOD” and the 5-Hydroxyindoleacetic acid [7, 18] was 0.01. For the same compound, the Indole [7, 18] was “< LOD”, the Indole-3-acrylic acid [7, 18] was “< LOD” and the Indole-3-aldehyde [7, 18] was 0.06. For the same compound, the Indole-3-ethanol [7, 18] was 0.266, the Indole-3-propionic acid [7, 18] was 0.008 and the Melatonin [7, 18] was “< LOD”. For the same compound, the Serotonin [7, 18] was “< LOD”, the Skatole [7, 18] was “< LOD” and the Tryptamine [7, 18] was 0.118. For the same compound, the butyrate levels ([7]; both proximal colon and distal colon, on initiation of treatment) was “significantly enhanced”, the “average increase of butyrate as compared to the control period” value ([7]; distal colon) was 78.8% and the “average increase of butyrate” value ([7]; distal colon) was 7.7 mM. For the same compound, the “average increase of butyrate as compared to the control period” value ([7]; proximal colon) was 91.9%, the “average increase of butyrate” value ([7]; proximal colon) was 7.4 mM and the “final fat as a percentage of baseline” value (C57BL/6J mice [8]; 60 mg/kg/d) was “statistically reduced”. The “final fat as a percentage of baseline” value (C57BL/6J mice [8]; 200 mg/kg/d) was “statistically reduced” and the “Lean:Fat ratio” value (C57BL/6J mice [8]; treated mice vs untreated control) was “significantly increased”.
